Measurements published in paper PMC2632993, “Conformational changes in α7 acetylcholine receptors underlying allosteric modulation by divalent cations” (BMC Pharmacology, 2009).
“Also recorded” adds a separate entry of the source.

Legend:
Format in all cases: cell-based, chick
[1] = molecular target: α7 C^115A/L^247T receptor (Gallus gallus, UniProt P22770, C138A/L270T); assay: ACh dose-response, two-electrode voltage clamp in Xenopus oocytes
Excerpt: (§1) A cDNA clone of the chick α7 receptor containing two mutations (C^115A, L^247T) was used as the parental phenotype for mutations described in this study. We mutated the lone unpaired cysteine in the extracellular domain (C^115) to alanine to allow for a more straightforward interpretation of thiol modification experiments. […] We included the mutation of leucine 247 in the M2 transmembrane domain (L^247T; L9'T) because of its large current amplitudes and non-desensitizing kinetics compared to wild-type α7 receptors. […] All mutations were introduced by site-directed mutagenesis using the QuikChange method (Agilent Technologies, La Jolla, CA) as described previously, and were confirmed by DNA sequencing.
(§2) cRNA was prepared using the T7 RNA polymerase and mMessage mMachine kit as described by the manufacturer (Applied Biosystems, Austin, TX). Oocytes were surgically removed and prepared from female Xenopus laevis in accordance with UNC Institutional Animal Care and Use Committee guidelines. Oocytes were injected with 20 ng of cRNA and incubated at 18°C in ND96 (96 mM NaCl, 2 mM KCl, 1 mM MgCl2, 1.8 mM CaCl2, 5 mM Na pyruvate, 50 μg/ml gentamicin, 5 mM HEPES, pH 7.5) for 2–5 days before use. For some mutants we co-injected cRNA encoding the human RIC-3 [38], a protein shown to enhance expression of α7 AChRs in both mammalian cells and oocytes.
(§3) Oocytes were superfused in normal extracellular solution containing a reduced Ca^2+ concentration (ESLC; 96 mM NaCl, 2 mM KCl, 1 mM MgCl2, 0.1 mM CaCl2, and 10 mM HEPES, pH 7.5). […] Two-electrode voltage clamp was performed with a GeneClamp 500B controlled by pCLAMP8 software (Molecular Devices, Sunnyvale, CA). Electrodes were filled with 3 M KCl contacting Ag-AgCl wires and had resistances of 0.5 to 2.0 MΩ. Currents were recorded at a constant holding potential of -60 mV. Currents were low pass filtered at 50 Hz and sampled at 100 Hz. Agonist dose-response curves were obtained as described previously, and data were fit to the Hill equation using Origin software (Microcal Software, Northampton, MA).
(§4) MTSEA was prepared daily in distilled water and stored on ice. Stock solution was diluted to the appropriate working concentration in ESLC immediately before each application. […] To measure the effect of Ba^2+ on modification rates we pre-applied 10 mM Ba^2+ for 30 seconds prior to co-application of 10 mM Ba^2+ plus MTSEA. […] Kinetic data were analyzed as described previously; rate data were fit to a single exponential to extract a pseudo-first order rate constant; this was divided by the MTSEA concentration used to determine the second order rate constant for thiol modification.

[2] = molecular target: α7 AChR M^40C/E^172Q mutant (C^115A/L^247T background) (Gallus gallus, UniProt P22770, C138A/E195Q/L270T/M63C); assay: as above
Excerpt: as §1, §2, §3, §4

[3] = molecular target: α7 AChR N^170C mutant (C^115A/L^247T background) (Gallus gallus, UniProt P22770, C138A/L270T/N193C); assay: as above; conditions: co-expression with human RIC-3, fraction of maximal ACh-evoked current evoked by 10 mM Ba^2+ in the absence of ACh
Excerpt: as §1, §2, §3, §4

[4] = molecular target: α7 AChR E^44C mutant (C^115A/L^247T background) (Gallus gallus, UniProt P22770, C138A/E67C/L270T); assay: as above
Excerpt: as §1, §2, §3, §4

[5] = molecular target: α7 AChR N^52C mutant (C^115A/L^247T background) (Gallus gallus, UniProt P22770, C138A/L270T/N75C); assay: as above
Excerpt: as §1, §2, §3, §4

[6] = molecular target: α7 AChR E^172C mutant (C^115A/L^247T background) (Gallus gallus, UniProt P22770, C138A/E195C/L270T); assay: as above
Excerpt: as §1, §2, §3, §4

[7] = molecular target: α7 AChR M^37C mutant (C^115A/L^247T background) (Gallus gallus, UniProt P22770, C138A/L270T/M60C); assay: as above; conditions: fraction of maximal ACh-evoked current evoked by 10 mM Ba^2+ in the absence of ACh
Excerpt: as §1, §2, §3, §4

[8] = molecular target: T1, α7 AChR M^40C mutant (C^115A/L^247T background) (Gallus gallus, UniProt P22770, C138A/L270T/M63C); conditions: fraction of maximal ACh-evoked current evoked by 10 mM Ba^2+ in the absence of ACh
T1 construct: expressed in transfected cells; host or cells: Xenopus laevis oocytes injected with cRNA
Excerpt: as §1, with “sequencing. […]” for “sequencing.”
Oocytes were superfused in normal extracellular solution containing a reduced Ca^2+ concentration (ESLC; 96 mM NaCl, 2 mM KCl, 1 mM MgCl2, 0.1 mM CaCl2, and 10 mM HEPES, pH 7.5). […] Currents were recorded at a constant holding potential of -60 mV. […]
MTSEA was prepared daily in distilled water and stored on ice. […] Kinetic data were analyzed as described previously; rate data were fit to a single exponential to extract a pseudo-first order rate constant; this was divided by the MTSEA concentration used to determine the second order rate constant for thiol modification.

[9] = fraction of maximal ACh-evoked current evoked by 10 mM Ba^2+ in the absence of ACh
[10] = co-expression with human RIC-3, fraction of maximal ACh-evoked current evoked by 10 mM Ba^2+ in the absence of ACh

[Ba+2].[Cl-].[Cl-] [Ba^2+, BaCl2]
decrease in ACh EC50 (leftward shift in the dose-response curve) caused by Ba^2+ ([1]; 10 mM Ba^2+): ~ 10 fold | Ba^2+ efficacy [1, 9]: 0.1 | positive allosteric modulation of ACh currents by Ba^2+ ([2]; 10 mM Ba^2+): not positively modulated | Ba^2+ efficacy [2, 10]: 0.02 | Ba^2+ efficacy [3]: 0.03 | positive allosteric modulation of ACh currents by Ba^2+ ([4]; 10 mM Ba^2+): eliminated; also recorded: no positive allosteric modulation | Ba^2+ efficacy [4, 9]: 0.01 | agonism by Ba^2+ in the absence of ACh ([5]; 10 mM Ba^2+): high partial agonism | Ba^2+ efficacy [5, 9]: 0.6 | positive allosteric modulation of ACh currents by Ba^2+ ([6]; 10 mM Ba^2+): no positive allosteric modulation | Ba^2+ efficacy [6, 10]: 0.02 | Ba^2+ efficacy [7]: 0.2 | Ba^2+ efficacy [8]: 0.1
